Patent US9181260B2, “Crystalline form of sitagliptin sulfate” (MOEHS IBERICA S.L., priority 2012, dated 2015)
Counter-ions that a name gives are not always drawn. Like-named read-outs stand apart in the source and are kept apart here. Each block holds one compound with its values, some of them ahead of it.

Experiments:
Type in all cases: physicochemical
[1] = Hygroscopicity study, European Pharmacopeia Ed. 6.0 Section 5.11 (degree of hydration at 80% and 97% RH, 25° C.); conditions: for Higroscopicity RH 80% / Higroscopicity RH 97%: water content by weight difference
Description: International application WO 2009/085990 A2 describes the production of an anhydrous crystalline form of sitagliptin sulfate salt and its characterization by means of DSC (Differential Scanning calorimetry), TGA (Thermal Gravimetric Analysis) and XRPD (X-Ray Powder Diffraction). However and in the hands of the inventors of the present application, said crystalline form is hygroscopic under the conditions of the European Pharmacopeia Ed. 6.0 Section 5.11 (24 hours at 80% RH and 25° C.), readily reaching a water proportion corresponding to a dihydrate form. […] A stability study of the M form of sitagliptin sulfate was performed under conditions of the European Pharmacopeia Ed. 6.0 Section 5.11, i.e., the degree of hydration was measured at 80% relative humidity (RH) at a temperature of 25° C. Additionally, the degree of hydration was also measured at 97% relative humidity (RH) at a temperature of 25° C. The results are shown in Table 1, wherein the higroscopicity (expressed as the water content by means of weight difference, following the procedure described in European Pharmacopeia Ed. 6.0 Section 5.11) of samples of 1 g of sitagliptin sulfate polymorph M of the present invention after storage at 1 day, 3 days, 7 days, 14 days and 21 days at 80% RH and 97% RH, respectively. […] 6.0 Section 5.11, i.e., the degree of hydration is less than 0.2%. The crystalline form of sitagliptin sulfate after 21 days at a relative humidity of 80% and 97%, respectively, were analyzed by means of X-ray diffraction.

[2] = Crystalline form after grinding
Description: 100.0 g (245.5 mmoles) of sitagliptin base were dissolved at 20-22° C. in a mixture of 750 ml of absolute ethanol and 120 ml of water. A previously prepared solution of 98.1% H2SO4 ([…], 240.9 mmoles) in ethanol (760 ml) was slowly added to said solution, maintaining the temperature between 20-25° C. When approximately ⅔ of the total volume of the acid solution had been added, the addition was stopped and 1.0 g (1.978 mmoles) of crystalline form M of sitagliptin sulfate obtained by means of any of the processes described in Examples 1 and 3-5 was added to the reaction mixture. The presence of a white precipitate that remains undissolved was immediately noticed. The addition of the acid solution was continued and once this ended, the mixture obtained was maintained at a temperature of 20-25° C. for 4 hours. The solid obtained was filtered and washed in the filter with absolute ethanol (2×100 ml). The wet product was dried in a vacuum oven at 40° C. for 22 hours to yield 97.1 g (192.1 mmoles) of a white crystalline solid (77.6%). XRPDs both of the wet product (FIG. 3) and of the dry product (FIG. 2) which correspond with form M of sitagliptin sulfate were performed. […] (FIG. 8). The water content determined by TGA (FIG. 13) is 0.02%.

[3] = Water content determined by thermal gravimetric analysis (TGA)
Description: TGA analyses were performed using a Mettler/Toledo TGA/SDTA851e thermobalance. Parameters: heating range from 30 to 300° C. with a 10° C./min ramp and a 50 ml/min dry N2 flow.

[4] = Accelerated stability study (40° C.±2° C., 75%±5% RH), water content by Karl-Fisher and XRPD; conditions: for Water content: Karl-Fisher
Description: Water Content (Karl-Fisher Method) The analysis is performed in a Mettler Toledo W30. It is determined in 0.2 g of sample using Hydranal medium K as solvent and Hydranal composite 5K as titrant. Accelerated stability study of the M form of sitagliptin sulfate was performed under the following conditions: temperature of 40° C.±2° C. and relative humidity (RH) of 75%±5%. The water content of the sample was determined at the beginning of the study, at 3 months and at 6 months, by means of Karl-Fisher. The crystalline form of sitagliptin sulfate after 6 months was analyzed by means of X-ray diffraction.

[5] = 80% RH and 97% RH, 25° C., up to 21 days

- hygroscopicity (in words) ([1]; 24 hours at 80% RH and 25° C., in the hands of the inventors): hygroscopic
SMILES: N[C@@H](CC(=O)N1CCn2c(nnc2C(F)(F)F)C1)Cc1cc(F)c(F)cc1F.O=S(=O)(O)O [reference compound]

- water content determined by TGA [3]: less than 0.05%
- water content determined by TGA ([3]; listed as Example 1): 0.02%
- water content determined by TGA ([3]; listed as Example 2): 0.02%
- water content determined by TGA ([3]; listed as Example 3): 0.03%
- water content determined by TGA ([3]; listed as Example 4): 0.01%
- water content determined by TGA ([3]; listed as Example 5): 0.004%
- Higroscopicity RH 80% ([1]; 25° C., 80% RH, 1 day): 0.07%
- Higroscopicity RH 80% ([1]; 25° C., 80% RH, 3 days): 0.10%
- Higroscopicity RH 80% ([1]; 25° C., 80% RH, 7 days): 0.12%
- Higroscopicity RH 80% ([1]; 25° C., 80% RH, 14 days): 0.10%
- Higroscopicity RH 80% ([1]; 25° C., 80% RH, 21 days): 0.07%
- Higroscopicity RH 97% ([1]; 25° C., 97% RH, 1 day): 0.05%
- Higroscopicity RH 97% ([1]; 25° C., 97% RH, 3 days): 0.08%
- Higroscopicity RH 97% ([1]; 25° C., 97% RH, 7 days): 0.06%
- Higroscopicity RH 97% ([1]; 25° C., 97% RH, 14 days): 0.06%
- Higroscopicity RH 97% ([1]; 25° C., 97% RH, 21 days): 0.07%
- degree of hydration [1, 5]: less than 0.2%
- hygroscopicity (in words) [1, 5]: non-hygroscopic
- degree of hydration ([1]; 80% relative humidity, 25° C.): less than 0.2%
- hygroscopicity (in words) ([1]; 80% relative humidity, 25° C., Ph. Eur. 6.0 Section 5.11): non-hygroscopic
- Water content ([4]; 3 months at 40° C.±2° C., 75%±5% RH): 0.09%
- Water content ([4]; 6 months at 40° C.±2° C., 75%±5% RH): 0.01%
- Water content ([4]; Initial): 0.09%
SMILES: N[C@@H](CC(=O)N1CCn2c(nnc2C(F)(F)F)C1)Cc1cc(F)c(F)cc1F [form M, addition salt of sitagliptin with sulfuric acid (1:1)]
- crystalline form of the ground product [2]: still the crystalline form of sitagliptin sulfate object of the present invention
- crystalline form by XRPD after storage ([1]; 21 days, 25° C., 80% RH): corresponding to form M of sitagliptin sulfate
- crystalline form by XRPD after storage ([1]; 21 days, 25° C., 97% RH): corresponding to form M of sitagliptin sulfate
- crystalline form by XRPD after storage ([4]; 6 months, 40° C.±2° C., 75%±5% RH): corresponding to form M of sitagliptin sulfate
